Each structure is given as a SMILES string.

Drawing on BindingDB's records for PubMed 2547939 (Abbott Laboratories, 1989), this text covers Ki for two molecules.

The target of assay [1] is T1, Muscarinic acetylcholine receptor M2 (Rattus norvegicus, UniProt P10980).
T1 sequence (P10980 whole entry): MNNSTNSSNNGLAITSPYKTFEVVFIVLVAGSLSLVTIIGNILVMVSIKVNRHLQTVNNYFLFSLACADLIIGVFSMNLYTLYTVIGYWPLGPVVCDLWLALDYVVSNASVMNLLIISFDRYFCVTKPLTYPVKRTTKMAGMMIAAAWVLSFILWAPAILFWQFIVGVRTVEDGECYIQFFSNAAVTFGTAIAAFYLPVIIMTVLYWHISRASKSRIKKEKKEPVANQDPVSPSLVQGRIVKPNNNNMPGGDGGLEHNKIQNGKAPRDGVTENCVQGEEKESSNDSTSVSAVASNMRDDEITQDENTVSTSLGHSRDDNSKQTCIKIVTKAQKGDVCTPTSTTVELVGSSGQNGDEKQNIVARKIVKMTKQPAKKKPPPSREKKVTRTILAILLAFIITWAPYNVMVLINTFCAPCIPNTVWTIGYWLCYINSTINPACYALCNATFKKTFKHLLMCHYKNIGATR

Assay [2] deals with T2, Muscarinic acetylcholine receptor M1 (Rattus norvegicus, UniProt P08482).
T2 sequence (P08482 whole entry): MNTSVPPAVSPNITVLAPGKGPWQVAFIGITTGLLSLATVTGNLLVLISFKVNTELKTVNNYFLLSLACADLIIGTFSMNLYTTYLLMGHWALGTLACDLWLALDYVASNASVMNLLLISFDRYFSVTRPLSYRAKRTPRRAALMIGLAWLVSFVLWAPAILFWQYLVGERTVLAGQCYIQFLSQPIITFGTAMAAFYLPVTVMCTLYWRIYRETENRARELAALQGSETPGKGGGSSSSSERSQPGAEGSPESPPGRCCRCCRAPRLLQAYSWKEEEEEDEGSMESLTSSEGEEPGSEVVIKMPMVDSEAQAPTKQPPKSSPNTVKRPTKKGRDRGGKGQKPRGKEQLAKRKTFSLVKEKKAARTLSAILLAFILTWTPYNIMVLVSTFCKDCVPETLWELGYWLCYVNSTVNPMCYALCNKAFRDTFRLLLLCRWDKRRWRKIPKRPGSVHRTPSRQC

As to `CCN(CC)CC1CCCCN1CC(=O)N1c2ccccc2C(=O)Nc2cccnc21` (stereo not drawn) [(AF-DX 116) 11-[2-(2-Diethylaminomethyl-piperidin-1-yl)-acetyl]-5,11-dihydro-benzo[e]pyrido[3,2-b][1,4]diazepin-6-one], the results for the Ki in assay [1] and in assay [2] were 33.9 nM and 180 nM, respectively. `O[Si](CCCN1CCCCC1)(c1ccccc1)C1CCCCC1` (stereo not drawn) [HHSiD] returned a Ki in assay [2] of 14.8 nM.
